Assay results as given in the supplement of paper PMC10307832.

Tests used:
Assay in all cases: relative viability (nuclei count vs DMSO), 5 days (fraction); higher = more cells survive
[1] = test system: NCI-H3122
How it was run: (§1)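 Relative viability divides the nuclei count in treated wells by that in vehicle wells. Lung cancer cell lines were seeded in 1536-well plates, dosed by pin tool the next day, and fixed and stained after 5 days in one step with final 0.05% Triton X-100, 1% formaldehyde and 1 ug/ml Hoechst. Dosing was a single drug or a fixed anchor-drug dose plus five library-drug doses (not always all listed) in √10 steps, and values are medians of duplicate plates imaged at 4×.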

[2] = test system: NCI-H2170
How it was run: as §1

[3] = test system: NCI-H1915
How it was run: as §1

[4] = test system: NCI-H2023
How it was run: as §1

[5] = test system: NCI-H1755
How it was run: as §1

[6] = test system: EMC-BAC-2
How it was run: as §1

[7] = test system: NCI-H727
How it was run: as §1

[8] = test system: NCI-H358
How it was run: as §1

[9] = test system: NCI-H650
How it was run: as §1

[10] = test system: HCC-15
How it was run: as §1

[11] = test system: SW 1573
How it was run: as §1

[12] = test system: NCI-H2126
How it was run: as §1

[13] = test system: NCI-H1395
How it was run: as §1

[14] = test system: NCI-H1563
How it was run: as §1

[15] = test system: NCI-H1437
How it was run: as §1

[16] = test system: BEN
How it was run: as §1

[17] = test system: LU99A
How it was run: as §1

[18] = test system: NCI-H1734
How it was run: as §1

[19] = test system: SW 900
How it was run: as §1

[20] = test system: HOP-62
How it was run: as §1

[21] = test system: LC-2-ad
How it was run: as §1

[22] = test system: HCC-44
How it was run: as §1

Question: Which relative viability ([1]; first compound 0.001 µM) does the source give for `Cc1cn(-c2cc(NC(=O)c3ccc(C)c(Nc4nccc(-c5cccnc5)n4)c3)cc(C(F)(F)F)c2)cn1` [Nilotinib] + COc1cccc2cc(-c3nc([C@H]4CC[C@H](C(=O)O)CC4)n4ncnc(N)c34)[nH]c12 [OSI-027] (partner 0.5 µM) here?
Answer: 0.961

Question: What about the relative viability ([1]; first compound 0.003162 µM) of the same molecule?
Answer: 1.33

Question: What about the relative viability ([1]; first compound 0.01 µM) of the same molecule?
Answer: 1.24

Question: What about the relative viability ([1]; first compound 0.03162 µM) of the same molecule?
Answer: 0.66

Question: And the relative viability ([1]; first compound 0.1 µM)?
Answer: 0.467

Question: And the relative viability ([2]; first compound 0.001 µM)?
Answer: 0.662

Question: And the relative viability ([2]; first compound 0.003162 µM)?
Answer: 0.589

Question: And the relative viability ([2]; first compound 0.01 µM)?
Answer: 0.832

Question: What about the relative viability ([2]; first compound 0.03162 µM) of the same molecule?
Answer: 0.828

Question: And the relative viability ([2]; first compound 0.1 µM)?
Answer: 0.563

Question: And the relative viability ([3]; first compound 0.001 µM)?
Answer: 0.552

Question: What about the relative viability ([3]; first compound 0.003162 µM) of the same molecule?
Answer: 0.659

Question: And the relative viability ([3]; first compound 0.01 µM)?
Answer: 0.61

Question: What about the relative viability ([3]; first compound 0.03162 µM) of the same molecule?
Answer: 0.567

Question: And the relative viability ([3]; first compound 0.1 µM)?
Answer: 0.338

Question: And the relative viability ([4]; first compound 0.001 µM)?
Answer: 0.303

Question: And the relative viability ([4]; first compound 0.003162 µM)?
Answer: 0.3

Question: And the relative viability ([4]; first compound 0.01 µM)?
Answer: 0.313

Question: What about the relative viability ([4]; first compound 0.03162 µM) of the same molecule?
Answer: 0.277

Question: What about the relative viability ([4]; first compound 0.1 µM) of the same molecule?
Answer: 0.195

Question: What about the relative viability ([5]; first compound 0.001 µM) of the same molecule?
Answer: 0.792

Question: And the relative viability ([5]; first compound 0.003162 µM)?
Answer: 0.617

Question: What about the relative viability ([5]; first compound 0.01 µM) of the same molecule?
Answer: 0.74

Question: What about the relative viability ([5]; first compound 0.03162 µM) of the same molecule?
Answer: 0.553

Question: And the relative viability ([5]; first compound 0.1 µM)?
Answer: 0.383

Question: What about the relative viability ([6]; first compound 0.001 µM) of the same molecule?
Answer: 0.348

Question: What about the relative viability ([6]; first compound 0.003162 µM) of the same molecule?
Answer: 0.387

Question: What about the relative viability ([6]; first compound 0.01 µM) of the same molecule?
Answer: 0.426

Question: And the relative viability ([6]; first compound 0.03162 µM)?
Answer: 0.345

Question: What about the relative viability ([6]; first compound 0.1 µM) of the same molecule?
Answer: 0.354

Question: What about the relative viability ([7]; first compound 0.001 µM) of the same molecule?
Answer: 0.57

Question: And the relative viability ([7]; first compound 0.003162 µM)?
Answer: 0.477

Question: And the relative viability ([7]; first compound 0.01 µM)?
Answer: 0.697

Question: What about the relative viability ([7]; first compound 0.03162 µM) of the same molecule?
Answer: 0.44

Question: What about the relative viability ([7]; first compound 0.1 µM) of the same molecule?
Answer: 0.344

Question: What about the relative viability ([8]; first compound 0.001 µM) of the same molecule?
Answer: 0.708

Question: And the relative viability ([8]; first compound 0.003162 µM)?
Answer: 1.09

Question: And the relative viability ([8]; first compound 0.01 µM)?
Answer: 0.655

Question: And the relative viability ([8]; first compound 0.03162 µM)?
Answer: 0.666

Question: And the relative viability ([8]; first compound 0.1 µM)?
Answer: 0.252

Question: And the relative viability ([9]; first compound 0.001 µM)?
Answer: 0.406

Question: And the relative viability ([9]; first compound 0.003162 µM)?
Answer: 0.526

Question: What about the relative viability ([9]; first compound 0.01 µM) of the same molecule?
Answer: 0.486

Question: And the relative viability ([9]; first compound 0.03162 µM)?
Answer: 0.441

Question: And the relative viability ([9]; first compound 0.1 µM)?
Answer: 0.362

Question: What about the relative viability ([10]; first compound 0.001 µM) of the same molecule?
Answer: 0.562

Question: What about the relative viability ([10]; first compound 0.003162 µM) of the same molecule?
Answer: 0.778

Question: And the relative viability ([10]; first compound 0.01 µM)?
Answer: 0.775

Question: What about the relative viability ([10]; first compound 0.03162 µM) of the same molecule?
Answer: 0.435

Question: What about the relative viability ([10]; first compound 0.1 µM) of the same molecule?
Answer: 0.306

Question: What about the relative viability ([11]; first compound 0.001 µM) of the same molecule?
Answer: 0.566

Question: What about the relative viability ([11]; first compound 0.003162 µM) of the same molecule?
Answer: 0.751

Question: What about the relative viability ([11]; first compound 0.01 µM) of the same molecule?
Answer: 0.72

Question: And the relative viability ([11]; first compound 0.03162 µM)?
Answer: 0.276

Question: What about the relative viability ([11]; first compound 0.1 µM) of the same molecule?
Answer: 0.155

Question: And the relative viability ([12]; first compound 0.001 µM)?
Answer: 0.673

Question: And the relative viability ([12]; first compound 0.003162 µM)?
Answer: 0.706

Question: What about the relative viability ([12]; first compound 0.01 µM) of the same molecule?
Answer: 0.572

Question: What about the relative viability ([12]; first compound 0.03162 µM) of the same molecule?
Answer: 0.582

Question: And the relative viability ([12]; first compound 0.1 µM)?
Answer: 0.544

Question: And the relative viability ([13]; first compound 0.001 µM)?
Answer: 0.673

Question: And the relative viability ([13]; first compound 0.003162 µM)?
Answer: 0.467

Question: And the relative viability ([13]; first compound 0.01 µM)?
Answer: 0.579

Question: What about the relative viability ([13]; first compound 0.03162 µM) of the same molecule?
Answer: 0.612

Question: What about the relative viability ([13]; first compound 0.1 µM) of the same molecule?
Answer: 0.416

Question: What about the relative viability ([14]; first compound 0.001 µM) of the same molecule?
Answer: 0.72

Question: What about the relative viability ([14]; first compound 0.003162 µM) of the same molecule?
Answer: 0.731

Question: What about the relative viability ([14]; first compound 0.01 µM) of the same molecule?
Answer: 0.681

Question: And the relative viability ([14]; first compound 0.03162 µM)?
Answer: 0.74

Question: And the relative viability ([14]; first compound 0.1 µM)?
Answer: 0.666

Question: What about the relative viability ([15]; first compound 0.001 µM) of the same molecule?
Answer: 0.826

Question: And the relative viability ([15]; first compound 0.003162 µM)?
Answer: 0.815

Question: And the relative viability ([15]; first compound 0.01 µM)?
Answer: 0.876

Question: And the relative viability ([15]; first compound 0.03162 µM)?
Answer: 0.619

Question: What about the relative viability ([15]; first compound 0.1 µM) of the same molecule?
Answer: 0.902

Question: What about the relative viability ([16]; first compound 0.001 µM) of the same molecule?
Answer: 0.295

Question: What about the relative viability ([16]; first compound 0.003162 µM) of the same molecule?
Answer: 0.285

Question: And the relative viability ([16]; first compound 0.01 µM)?
Answer: 0.348

Question: And the relative viability ([16]; first compound 0.03162 µM)?
Answer: 0.283

Question: What about the relative viability ([16]; first compound 0.1 µM) of the same molecule?
Answer: 0.277

Question: What about the relative viability ([17]; first compound 0.001 µM) of the same molecule?
Answer: 0.272

Question: What about the relative viability ([17]; first compound 0.003162 µM) of the same molecule?
Answer: 0.304

Question: What about the relative viability ([17]; first compound 0.01 µM) of the same molecule?
Answer: 0.256

Question: And the relative viability ([17]; first compound 0.03162 µM)?
Answer: 0.313

Question: What about the relative viability ([17]; first compound 0.1 µM) of the same molecule?
Answer: 0.273

Question: And the relative viability ([18]; first compound 0.001 µM)?
Answer: 0.57

Question: What about the relative viability ([18]; first compound 0.003162 µM) of the same molecule?
Answer: 0.595

Question: What about the relative viability ([18]; first compound 0.01 µM) of the same molecule?
Answer: 0.64

Question: And the relative viability ([18]; first compound 0.03162 µM)?
Answer: 0.435

Question: And the relative viability ([18]; first compound 0.1 µM)?
Answer: 0.261

Question: And the relative viability ([19]; first compound 0.001 µM)?
Answer: 0.46

Question: And the relative viability ([19]; first compound 0.003162 µM)?
Answer: 0.492

Question: And the relative viability ([19]; first compound 0.01 µM)?
Answer: 0.595

Question: What about the relative viability ([19]; first compound 0.03162 µM) of the same molecule?
Answer: 0.354

Question: What about the relative viability ([19]; first compound 0.1 µM) of the same molecule?
Answer: 0.465

Question: What about the relative viability ([20]; first compound 0.001 µM) of the same molecule?
Answer: 0.699

Question: And the relative viability ([20]; first compound 0.003162 µM)?
Answer: 0.831

Question: What about the relative viability ([20]; first compound 0.01 µM) of the same molecule?
Answer: 0.909

Question: What about the relative viability ([20]; first compound 0.03162 µM) of the same molecule?
Answer: 0.581

Question: And the relative viability ([20]; first compound 0.1 µM)?
Answer: 0.559

Question: And the relative viability ([21]; first compound 0.001 µM)?
Answer: 0.739

Question: What about the relative viability ([21]; first compound 0.003162 µM) of the same molecule?
Answer: 0.909

Question: What about the relative viability ([21]; first compound 0.01 µM) of the same molecule?
Answer: 0.795

Question: What about the relative viability ([21]; first compound 0.03162 µM) of the same molecule?
Answer: 0.728

Question: And the relative viability ([21]; first compound 0.1 µM)?
Answer: 0.472

Question: And the relative viability ([22]; first compound 0.001 µM)?
Answer: 0.498

Question: What about the relative viability ([22]; first compound 0.003162 µM) of the same molecule?
Answer: 0.391

Question: What about the relative viability ([22]; first compound 0.01 µM) of the same molecule?
Answer: 0.43

Question: What about the relative viability ([22]; first compound 0.03162 µM) of the same molecule?
Answer: 0.505

Question: And the relative viability ([22]; first compound 0.1 µM)?
Answer: 0.382
